Measured values as given in patent publication US7473788B2, “Analogs of terpene trilactones from Ginkgo biloba and related compounds and uses thereof” (The Trustees of Columbia University in the City of New York, priority 2002, dated 2009).
pIC50, pKi: −log10 of the molar value. Like-named read-outs stand apart in the source and are kept apart here.

Columns and labels:
PAFR [1] = target: T1, PAFR (Cavia porcellus, UniProt P21556); experiment: biochemical
PAFR [2] = target: T1, PAFR; conditions: for pKi: Inhibition of [^3H]-WEB 2086 binding, cloned PAFR, Cheng-Prusoff from IC50; for PAFR binding (in words): at the concentrations tested
PAFR [3] = target: T1, PAFR; assay type: binding, PAFR transgenic mice
PAFR [4] = conditions: PAF-induced rabbit platelet aggregation (Park, 1996; Hu, 1999; Hu, 2000); cited from earlier work
PAFR [5] = experiment: PAFR antagonism in previous or preliminary studies (literature, unpublished results); conditions: preliminary studies (Suehiro, unpublished results)
PAFR [6] = conditions: literature (Pietri, 2001; Jaracz, 2002); cited from earlier work
[7] = Ki, Inhibition of [^3H]-WEB 2086 binding, means of two independent experiments performed in triplicate
[8] = Inhibition of [^3H]-WEB 2086 binding, means of two independent experiments performed in triplicate, read-out: Ki

T1 sequence (P21556 whole entry): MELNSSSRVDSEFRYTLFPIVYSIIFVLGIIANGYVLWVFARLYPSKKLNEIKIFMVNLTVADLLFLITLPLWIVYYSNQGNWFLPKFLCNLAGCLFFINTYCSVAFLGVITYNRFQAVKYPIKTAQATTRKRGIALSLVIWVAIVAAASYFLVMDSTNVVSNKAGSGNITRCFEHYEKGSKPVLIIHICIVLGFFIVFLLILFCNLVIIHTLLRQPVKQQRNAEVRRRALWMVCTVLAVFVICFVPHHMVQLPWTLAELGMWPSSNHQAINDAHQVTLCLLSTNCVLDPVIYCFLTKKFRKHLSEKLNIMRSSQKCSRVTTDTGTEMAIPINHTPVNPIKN

In the case of `CC1C(=O)OC2C(OS(=O)(=O)c3cccc4c(N(C)C)cccc34)C34C5OC(=O)C3(OC3OC(=O)C(OCc6ccc(C(=O)c7ccccc7)cc6)C34C(C(C)(C)C)C5O)C12O` (stereo not shown) [Compound 10b, 10-O-benzophenone-1-O-dansyl ginkgolide C], the pKi (PAFR [1]) was 6.02 and the “times more potent than 10a” value (PAFR [2]) was “ca. four”.
Work on `CC1C(=O)OC2C(O)C34C5CC(C(C)(C)C)C36C(OC(=O)C6OCc3ccc(C6(C(F)(F)F)N=N6)cc3)OC4(C(=O)O5)C12O` (stereo not shown) [Compound 8b, 10-O-(trifluoromethyl-3H-diazirine)benzyl ginkgolide B] yielded a pKi (PAFR [1]) of 6.82.
`CC1C(=O)OC2C(O)C34C5OC(=O)C3(OC3OC(=O)C(OCc6c(F)c(F)c(N=[N+]=[N-])c(F)c6F)C34C(C(C)(C)C)C5O)C12O` (stereo not shown) [Compound 9c, 10-O-tetrafluorobenzylazide ginkgolide C] showed a pKi (PAFR [1]) of 6.10.
With `CC1C(=O)OC2C(O)C34C5OC(=O)C3(OC3OC(=O)C(OCc6ccccc6)C34C(C(C)(C)C)C5F)C12O` (stereo not drawn) [10-OBn-7α-F-GB (30), 10-O-Benzyl-7α-fluoro Ginkgolide B] the pKi (PAFR [3]; [7]) was 7.00 and the “fold improved affinity compared to non-benzylated derivative” value (PAFR [3]; ratio of Ki) was 10.
In the case of “10-O-benzophenone-7-O-dansyl ginkgolide C [Compound 10a]”, the pKi (PAFR [2]) was 5.40 and the “times less active than 9a” value (PAFR [2]; ratio of Ki) was “ca. 6”.
In the case of `CC1C(=O)OC2C(O)C34C5CC(C(C)(C)C)C36C(OC(=O)C6O)OC4(C(=O)O5)C12O` (stereo not shown) [GB (2), ginkgolide B, reference compound], the pKi (PAFR [1]) is listed as 6.25, the pIC50 (PAFR [4]) is listed as ~6.70 and the “fold more potent than GC (2)” value (PAFR [3]; ratio of Ki) is listed as “ca. 25”. It also gave a pKi (PAFR [3]; read-out: Ki) of 6.06.
In the case of `CC1C(=O)OC2C(O)C34C5OC(=O)C3(OC3OC(=O)C(O)C34C(C(C)(C)C)C5F)C12O` (stereo not shown) [Compound 13, 7-Fluoro ginkgolide B], the “fold more potent as a PAFR antagonist compared to GC (2)” value (PAFR [5]) was 15 and the “fold more potent / improved affinity to PAFR relative to GC (3)” value (PAFR [2]) was “ca. 10”.
For ginkgolide J [GJ (4)], the pKi (PAFR [2]) was 5.00.
With `CC1C(=O)OC2C(O)C34C5CC(C(C)(C)C)C36C(OC(=O)C6OCc3ccccc3)OC4(C(=O)O5)C12O` (stereo not shown) [10-OBn-GB (28), 10-O-Benzyl Ginkgolide B] the pKi (PAFR [3]; [8]) was 6.92.
`CC1C(=O)OC2C(O)C34C5OC(=O)C3(OC3OC(=O)C(O)C34C(C(C)(C)C)C5OC(=O)Cc3ccccc3)C12O` (stereo not drawn) [7α-OCOCH2Ph-GB (19), 7α-O-Phenylacetate Ginkgolide B] showed a pKi (PAFR [3]; [7]) of 5.62.
With `CC1C(=O)O[C@H]2C(O)C34C5OC(=O)[C@@]3(OC3OC(=O)[C@H](O)C34C(C(C)(C)C)[C@@H]5N=[N+]=[N-])[C@@]12O` (stereo partly drawn) [7α-N3-GB (20), 7α-Azido Ginkgolide B] the pKi (PAFR [3]; [8]) was 6.26.
For `CC(C)(C)[C@]1(O)CC2OC(=O)CC23C(=O)OC2OC(=O)[C@H](O)C231` (stereo partly shown) [BB (6), bilobalide], the pKi (PAFR [2]) was < 4.30 and the “PAFR binding (in words)” value (PAFR [2]) was “not active in concentrations up to 100 μM”.
In the case of 7-O-(4-methylphenyl)-GB, the “PAFR activity (in words)” value (PAFR [6]) is listed as “devoid of PAFR activity”.
For `CNC1C(C(C)(C)C)C23C(OC(=O)C2O)OC24C(=O)OC1C32C(O)C1OC(=O)C(C)C14O` (stereo not drawn) [7α-NHMe-GB (25), 7α-N-Methylamino Ginkgolide B], the pKi (PAFR [3]; [8]) was 6.21 and the pKi (PAFR [3]; [7]) was 5.79 to 6.26.
For `C[C@@H]1C(=O)O[C@@H]2[C@H]1[C@@]13OC4OC(=O)[C@H](O)C45[C@H](C(C)(C)C)[C@@H](O)C(OC1=O)[C@]53[C@H]2O` (stereo partly shown) [GM (5), ginkgolide M], the pKi (PAFR [2]) was < 4.30 and the “PAFR binding (in words)” value (PAFR [2]) was “devoid of PAFR binding”.
Work on `COC1C(=O)OC2OC34C(=O)OC5CC(C(C)(C)C)C21C53C(O)C1OC(=O)C(C)C14O` (stereo not shown) [Compound 14, 10-O-Methyl ginkgolide B] yielded a pKi (PAFR [1]) of 5.50.
With `CC1C(=O)OC2C(O)C34C5OC(=O)C3(OC3OC(=O)C(O)C34C(C(C)(C)C)C5O)C12O` (stereo not drawn) [7-epi-GC (18), 7-Epi-ginkgolide C] the pKi (PAFR [3]; [7]) was 5.37.
With `CC1C(=O)OC2C(O)C34C5OC(=O)C3(OC3OC(=O)C(O)C34C(C(C)(C)C)C5Cl)C12O` (stereo not drawn) [7α-Cl-GB (22), 7α-Chloro Ginkgolide B] the “fold more potent than GC (2)” value (PAFR [3]; ratio of Ki) was 115 and the “times more potent than GB (1)” value (PAFR [3]; ratio of Ki) was 8.
In the case of `C[C@@H]1C(=O)O[C@H]2C[C@@]34[C@H]5C[C@@H](C(C)(C)C)[C@]36[C@@H](OC(=O)[C@@H]6O)O[C@@]4(C(=O)O5)[C@]21O` [GA (1), ginkgolide A], the pKi (PAFR [2]) was 5.84.
For `CC1C(=O)OC2C(O)C34C5CC(C(C)(C)C)C36C(OC(=O)C6OCc3c(F)c(F)c(N=[N+]=[N-])c(F)c3F)OC4(C(=O)O5)C12O` (stereo not shown) [Compound 8c, 10-O-tetrafluorobenzylazide ginkgolide B], the pKi (PAFR [1]) was 7.05.
`CC1C(=O)OC2C(O)C34C5OC(=O)C3(OC3OC(=O)C(OCc6ccccc6)C34C(C(C)(C)C)C5O)C12O` (stereo not shown) [10-OBn-GC (29), 10-O-Benzyl Ginkgolide C] showed a pKi (PAFR [3]; [8]) of 5.78.
With `CC(=O)OC1C(C(C)(C)C)C23C(OC(=O)C2O)OC24C(=O)OC1C32C(O)C1OC(=O)C(C)C14O` (stereo not drawn) [7α-OAc-GB (17), 7α-O-Acetate Ginkgolide B] the pKi (PAFR [3]; [8]) was 5.11.
Work on `CC1C(=O)OC2C(O)C34C5OC(=O)C3(OC3OC(=O)C(O)C34C(C(C)(C)C)C5O)C12O` (stereo not shown) [GC (3), ginkgolide C, reference compound] yielded a pKi (PAFR [1]) of 4.90.
Compound `CCNC1C(C(C)(C)C)C23C(OC(=O)C2O)OC24C(=O)OC1C32C(O)C1OC(=O)C(C)C14O` (stereo not drawn) [7α-NHEt-GB (26), 7α-N-Ethylamino Ginkgolide B] has a pKi (PAFR [3]; [8]) of 5.79 and a pKi (PAFR [3]; [7]) of 5.79 to 6.26.
In the case of Neoginkgolide C [Compound 23], the pKi (PAFR [3]; [8]) was < 4.40.
“10-O-benzoylbenzoic ginkgolide C [Compound 11]” gave a pKi (PAFR [2]) of 6.89.
With `CC1C(=O)OC2C(O)C34C5OC(=O)C3(OC3OC(=O)C(OCc6ccccc6)C34C(C(C)(C)C)C5O)C12O` (stereo not drawn) [10-OBn-epi-GC (31), 10-O-Benzyl-7-epi-ginkgolide C] the pKi (PAFR [3]; [8]) was 6.22 and the “fold improved affinity compared to non-benzylated derivative” value (PAFR [3]; ratio of Ki) was 7.
